# Experimental data taken from PMC5983277 (Marine Drugs, 2018).
# Where two headings read alike, the source gives them in different places.
# How the values were obtained:
# [1] = tested on: Human recombinant AchE; design: method as in Sirimangkalakitti et al. 2015 [32]; key to mode of AChE inhibition: NCI: non competitive inhibition; CI: competitive inhibition; ND: non described; settings: ref Sirimangkalakitti et al. 2015 [32], cited from earlier work; for IC50: read-out: AChE inhibition IC50
# [2] = tested on: human epidermoid carcinoma cells (KB); experiment: cells; settings: Homo sapiens, KB, 72 h, read-out: percentage of inhibition of cellular proliferation of KB cells
# Protocol: (§1) The human cell line KB originated from the National Cancer Institute (NCI) and was grown in Dulbecco’s Modified Eagle Medium (D-MEM) medium supplemented with 10% foetal calf serum, in the presence of penicillin, streptomycin, and fungizone in a 75 mL flask under 5% CO2. A total of 600 cells were plated in 96-well tissue culture plates in 200 µL of medium and treated 24 h later with 2 μL of stock solution of compounds dissolved in DMSO using a Biomek 3000 (Beckman-Coulter, Brea, CA, USA). Controls received the same volume of DMSO (1% final volume). After 72 h exposure, cell titer 96 Aqueous One solution (Promega, Madison, WI, USA) was added and incubated for 3 h at 37 °C: the absorbance was monitored at 490 nm, and results were expressed as the inhibition of cell proliferation calculated as the ratio [(1 − (OD490 treated/OD490 control)) × 100] in triplicate experiments.
# [3] = target: Insect recombinant AChE; design: method as in Sepcic et al. 2001 [33]; key to mode of AChE inhibition: NCI: non competitive inhibition; CI: competitive inhibition; ND: non described; settings: ref Sepcic et al. 2001 [33], cited from earlier work
# [4] = target: Eel AChE; design: key to mode of AChE inhibition: NCI: non competitive inhibition; CI: competitive inhibition; ND: non described; settings: cited from earlier work; for IC50: read-out: AChE inhibition IC50
# [5] = target: T1, acetylcholinesterase (AChE) (Homo sapiens, UniProt P22303); experiment: Acetylcholinesterase inhibition assay (Ellman's colorimetric method) and kinetic study; type: biochemical
# T1 construct: purchased Sigma-Aldrich
# Protocol: The crude extract of the sponge and the purified psammaplysene D (1) were dissolved in DMSO at 10 mg/mL, stored at −20 °C and diluted subsequently 100 times in H2O prior testing. Determination of AChE-inhibitory activity was measured according the Ellman’s colorimetric method, in 96-well tissue culture plates. All reagents, buffers and salts were purchased from Sigma-Aldrich (Saint-Louis, MO, USA). Galantamine was used as a positive control for each analysis. Solvent controls received the same volume of water. After a 30 min incubation at 25 °C in the dark, absorbance was monitored at λ = 405 nm. Results were expressed as the percentage of enzyme inhibition calculated as the ratio: 100 × (ODcontrol − ODtreated)/(ODcontrol − ODblank), where the blanks are the wells without AChE. Serial dilutions of the compound or extract were prepared (100, 50, 25, 12.5, 6.25, 3.12, 1.56, and 0.78 μg/mL) and tested according to the same procedure using 10 μL of each solution. IC50 values were graphically determined by plotting the percentage of inhibition against the compound concentrations. Each assay was performed in triplicate and results are expressed as mean values ± S.D.
# The inhibition mode of psammaplysene D on AChE was determined while measuring the enzyme activity in presence of an increasing concentration of ATCI (0.024, 0.049, 0.098, 0.19, 0.39, 0.78, 1.57, and 3.15 μM), in absence or presence of 2 μg/mL final concentration of purified psammaplysene D. The inhibition mode, Vmax, and KM values were determined by double-reciprocal Lineweaver and Burk plot analysis (1934) of the data obtained.
# [6] = tested on: Poecilia reticulata (guppy); experiment: Guppy chronic (sub-lethal) exposure, feeding on flakes; type: in vivo; settings: guppies, sub-lethal dose 1 μg/mL purified compound, 24 h exposure (72 h experiment)
# Protocol: (§2) The screening of our French Polynesian sponges extract library was performed on acetylcholinesterase inhibitor (AChE) in the aim to investigate a possible chemical defense of sessile organisms on the reef against fishes, their main predators. […] In order to try to evaluate the effect of psammaplysene D in the environment, it was further tested on fresh water fish (guppy, Poecilia reticulata) and reef fish (Acanthurus triostegus) feeding experiment using bathing with or without the bioactive compound. Guppies are fed with commercial flakes, but the wild reef fish feed on natural coral heads, and their appetite evaluated by counting the bites on the corals. Two experiments were run on guppies using Suberea ianthelliformis crude extract and purified psammaplysene D (1): an acute toxicity bioassay (100 μg/mL of crude extract or purified psammaplysene D (1), 1 h) and a chronic toxicity (5 μg/mL of crude extract or 1 μg/mL of purified psammalysene D (1), 72 h).
# 5 to 8 cm long guppies (Poecilia reticulata) were collected at night in a private fresh water pool at Papara (Tahiti, French Polynesia) and immediately acclimated at the laboratory temperature (25 °C). After acclimatization, fishes were parted in two 2 L tanks: one for the control group treated with solvent (N = 5). […]
# [7] = tested on: Poecilia reticulata (guppy); experiment: Guppy acute toxicity bioassay (bathing, 1 h); type: in vivo; settings: guppies
# Protocol: as §2
# 5 to 8 cm long guppies (Poecilia reticulata) were collected at night in a private fresh water pool at Papara (Tahiti, French Polynesia) and immediately acclimated at the laboratory temperature (25 °C). After acclimatization, fishes were parted in two 2 L tanks: one for the control group treated with solvent (N = 5). Another experiment was performed using a 1 h treatment with 100 μg/mL of crude extract of the sponge or purified psammaplysene D (1) to check their acute toxicity.
# [8] = tested on: Acanthurus triostegus (reef fish); experiment: Reef fish feeding behavior experiment (bites on coral rubble); type: in vivo; settings: for number of bites on coral pieces per recruit and per hour (in words): A. triostegus recruits (larvae undergoing metamorphosis), 1 μg/mL in tank, 72 h, p < 0.01
# Protocol: Manini (Acanthurus triostegus) were caught during new moon nights on the foreshore puddles at Tema’e public beach. Recruits (fish larvae undergoing metamorphosis) and juveniles (larvae after the recruits stage) were collected and immediately used for the experiments. Natural lagoon sea-water was used and UV-sterilized prior use. Three conditions were tested on three groups: control, solvent, 1 μg/mL sponge extract treatment, with 4 or 5 fishes in each 3 L tank. The fishes were exposed under semi-static system for 72 h, the experimental solutions were renewed every 24 h to maintain clean experimental conditions. The experiments were performed with fish recruits and juveniles. Rubbles were disposed in each aquarium 1 h/day during 3 days. Feeding behavior experiment consists in counting the overall number of bites on those rubbles in each aquarium. Six videos sequences (N = 6) of 5 or 10 min per aquarium and per day were analyzed. Results are expressed in number of bites per fish and per hour.
# All the values of AChE activity are represented in a boxplot distribution, because of non-normality of variable distribution (N = 4 or 5). The significant differences between controls and treatments (p-value p < 0.05) were analyzed with non-parametric test of Wilcoxon Mann Whitney. In feeding deterrent assay, pairs significant differences between different conditions (p < 0.05) were tested with non-parametric Kruskal Wallis test. All statistical assays were executed using R software (R-3.2.0, The R Foundation for Statistical Computing, Vienna, Austria).
# [9] = tested on: AChE; experiment: AChE activity in brain and gill extracts of exposed guppies; type: in vivo; settings: guppies after 1 h exposure to 100 µg/mL, N = 5, p < 0.05
# Protocol: Brains and gills of these guppies were extracted and the AChE activity measured on the extracts (Figure 7a,b) [29].
# Figure 7 (a) AChE activity, U·mg^−1, after 1 h exposure to 100 µg/mL of Psammalysene D (1). […] Boxplot distribution was made with 5 fish (N = 5).
# All the values of AChE activity are represented in a boxplot distribution, because of non-normality of variable distribution (N = 4 or 5). The significant differences between controls and treatments (p-value p < 0.05) were analyzed with non-parametric test of Wilcoxon Mann Whitney. […] All statistical assays were executed using R software (R-3.2.0, The R Foundation for Statistical Computing, Vienna, Austria).
# [10] = in vitro; settings: human
# Protocol: as §1
# T1 sequence (P22303 32-614, species assumed): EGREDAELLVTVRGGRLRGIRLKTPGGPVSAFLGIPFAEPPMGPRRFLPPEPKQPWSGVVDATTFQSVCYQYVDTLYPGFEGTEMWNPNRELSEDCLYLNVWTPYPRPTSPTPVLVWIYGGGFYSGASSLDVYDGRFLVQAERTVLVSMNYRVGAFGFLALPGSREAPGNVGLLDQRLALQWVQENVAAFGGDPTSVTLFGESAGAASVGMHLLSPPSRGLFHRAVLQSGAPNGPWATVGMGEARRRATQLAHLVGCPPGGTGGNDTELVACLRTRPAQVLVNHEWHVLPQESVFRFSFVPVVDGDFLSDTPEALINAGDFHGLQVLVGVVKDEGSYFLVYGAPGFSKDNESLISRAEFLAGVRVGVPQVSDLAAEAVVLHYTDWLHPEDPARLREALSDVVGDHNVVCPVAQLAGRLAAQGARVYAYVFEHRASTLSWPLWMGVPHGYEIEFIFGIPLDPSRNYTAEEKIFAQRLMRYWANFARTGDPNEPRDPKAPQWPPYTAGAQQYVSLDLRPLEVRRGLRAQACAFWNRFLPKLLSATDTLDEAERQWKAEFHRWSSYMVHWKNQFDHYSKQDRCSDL
compound,measurement,setting,value
COC1=C(Br)C(O)C2(C=C1Br)CC(C(=O)NCC(O)COc1c(Br)cc(C3CNC(=O)O3)cc1Br)=NO2 (centres unmarked) [Fistularin 1],IC50,[1],47.5 µM
"CN(C)CCc1cc(Br)c(OCCCN(C)C(=O)/C=C\c2cc(Br)c(O)c(Br)c2)c(Br)c1 [Psammaplysene G (3), psammaplysene G]",inhibition at 1 µM,[2],17 ± 1%
same,inhibition at 10 µM,[2],75 ± 0.4%
"CNC(Cc1cc(Br)c(O)c(Br)c1)C(=O)N(C)CCCOc1c(Br)cc(CCN(C)C)cc1Br (centres unmarked) [Anomoian D (7), O-demethyl anomoian A]",inhibition at 1 µM,[2],17 ± 2%
same,inhibition at 10 µM,[2],29 ± 2%
Br.COc1c(Br)cc(C/C(=N\O)C(=O)NCCc2cc(Br)c(OCCCN)c(Br)c2)cc1Br [Aplysamine-4],Ki,[3]; read-out: AChE inhibition KI,2 µM
same,mode of AChE inhibition,[3],NCI
same,Ki,"[4]; ref Sepcic et al. 2001 [33], read-out: AChE inhibition KI",16 µM
same,mode of AChE inhibition,[4]; ref Sepcic et al. 2001 [33],NCI
"CN(C)CCc1cc(Br)c(OCCCN(C)C(=O)/C=C/c2cc(Br)c(O)c(Br)c2)c(Br)c1 [Psammaplysene F (2), psammaplysene F]",inhibition at 1 µM,[2],20 ± 0.2%
same,inhibition at 10 µM,[2],73 ± 2%
Purealidine Q,IC50,[4]; ref Olatunji et al. 2014 [31],1.2 µM
same,mode of AChE inhibition,[4]; ref Olatunji et al. 2014 [31],NCI
"O=C(O)c1cc(O)c2c(O)ccc(O)c2n1 [5-hydroxy xanthenuric acid (11), 4,5,8-trihydroxyquinoline-2-carboxilic acid]",inhibition at 1 µM,[2],6 ± 0.5%
same,inhibition at 10 µM,[2],25 ± 1%
"CN(C)CCc1cc(Br)c(OCCCN(C)C(=O)C(Cc2cc(Br)c(O)c(Br)c2)N(C)C)c(Br)c1 (centres unmarked) [Anomoian C (6), O-demethyl anomoian B]",inhibition at 1 µM,[2],15 ± 3%
same,inhibition at 10 µM,[2],28 ± 5%
Aplysanzine A,IC50,[4]; ref Olatunji et al. 2014 [31],104 µM
same,mode of AChE inhibition,[4]; ref Olatunji et al. 2014 [31],NCI
"CN(C)CCCOc1c(Br)cc(/C=C/C(=O)N(C)CCCOc2c(Br)cc(CCN(C)C)cc2Br)cc1Br [Psammaplysene D (1), psammaplysene D]",IC50,[5],1.3 µM
same,mode of AChE inhibition,[5]; Lineweaver-Burk plot,mixed competitive/non-competitive inhibition
same,Vmax,"[5]; Lineweaver-Burk, with 2 μg/mL psammaplysene D, decreasing from 0.0036",0.0007 µmol/min
same,feeding behaviour towards food flakes,[6],loss of appetite from the first day of experiment
same,feeding behaviour towards food flakes,[6]; listed as psammalysene D (1),passivity of the fish towards the food flakes
same,behaviour during acute exposure,"[7]; 100 μg/mL, bathing",totally confused and had uncontrolled mobility
same,acute toxicity outcome,"[7]; 100 μg/mL, one hour bathing",death
same,time to onset of behavioural effects after addition to the tank,[7]; acute exposure 100 μg/mL,20 min
same,behaviour of reef fish juveniles,[8]; A. triostegus juveniles,did not seem to be impacted
same,number of bites on coral pieces per recruit and per hour (in words),[8],loss of appetite from the first day of experiment
same,number of bites on coral pieces per recruit and per hour (in words),[8]; listed as psammaplysene D (1),significantly and readily decreased the number of bites
same,AChE activity in gills (in words),[9],mild but significant decrease
same,IC50 at 72 h,[10],0.7 µM
same,inhibition at 1 µM,[2],95 ± 0.5%
same,inhibition at 10 µM,[2],100 ± 0.2%
"CN(C)CCc1cc(Br)c(O)c(Br)c1 [N,N-dimethyldibromotyramine (10), N,N-dimethyldibromotyramine]",inhibition at 1 µM,[2],89 ± 1%
same,inhibition at 10 µM,[2],100 ± 1%
"CN(C)CCCOc1c(Br)cc(CC(C(=O)N(C)CCCOc2c(Br)cc(CCN(C)C)cc2Br)N(C)C)cc1Br (centres unmarked) [Anomoian F (9), anomoian F]",inhibition at 1 µM,[2],20 ± 0.6%
same,inhibition at 10 µM,[2],100 ± 0.5%
CN[C@@H](Cc1cc(Br)c(OC)c(Br)c1)C(=O)NCCc1cc(Br)c(OCCCN(C)C)c(Br)c1 [Isoanomoian A],IC50,[4]; ref Olatunji et al. 2014 [31],70 µM
same,mode of AChE inhibition,[4]; ref Olatunji et al. 2014 [31],NCI
"CNC(Cc1cc(Br)c(OCCCN(C)C)c(Br)c1)C(=O)N(C)CCCOc1c(Br)cc(CCN(C)C)cc1Br (centres unmarked) [Anomoian E (8), anomoian E]",inhibition at 1 µM,[2],6 ± 2%
same,inhibition at 10 µM,[2],82 ± 1%
COC1=C(Br)[C@H](O)[C@@]2(C=C1Br)CC(C(=O)NCCCCCNC(=O)C1=NO[C@]3(C=C(Br)C(OC)=C(Br)[C@@H]3O)C1)=NO2 [Homoaerothionin],IC50,[1],4.5 µM
same,mode of AChE inhibition,[1],CI
